Experimental data taken from the supplement of paper PMC10307832.

Legend:
Experiment in all cases: relative viability (nuclei count vs DMSO), 5 days (fraction); higher = more cells survive
Lestaurtinib + Alpelisib = compound: C[C@]12O[C@H](C[C@]1(O)CO)n1c3ccccc3c3c4c(c5c6ccccc6n2c5c31)CNC4=O [Lestaurtinib] + Cc1nc(NC(=O)N2CCC[C@H]2C(N)=O)sc1-c1ccnc(C(C)(C)C(F)(F)F)c1 [Alpelisib] (partner 2 µM)
Outline: (§1)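 Medians of duplicate plates are given as relative viability. That measure is the nuclei count in treated wells divided by the count in vehicle wells. Counts were taken on 4× images of lung cancer cell lines in 1536-well plates, 5 days after pin-tool dosing the day after seeding with one drug alone or a fixed anchor-drug dose plus five library-drug doses (not always all listed) in √10 steps.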

Lestaurtinib + OSI-027 = compound: C[C@]12O[C@H](C[C@]1(O)CO)n1c3ccccc3c3c4c(c5c6ccccc6n2c5c31)CNC4=O [Lestaurtinib] + COc1cccc2cc(-c3nc([C@H]4CC[C@H](C(=O)O)CC4)n4ncnc(N)c34)[nH]c12 [OSI-027] (partner 0.5 µM)
Outline: as §1

[1] = compound: C[C@]12O[C@H](C[C@]1(O)CO)n1c3ccccc3c3c4c(c5c6ccccc6n2c5c31)CNC4=O [Lestaurtinib] + C[C@@H](Oc1cc(-c2cnn(C3CCNCC3)c2)cnc1N)c1c(Cl)ccc(F)c1Cl [Crizotinib] (partner 1 µM)
Outline: as §1

Lestaurtinib + Foretinib = compound: C[C@]12O[C@H](C[C@]1(O)CO)n1c3ccccc3c3c4c(c5c6ccccc6n2c5c31)CNC4=O [Lestaurtinib] + COc1cc2c(Oc3ccc(NC(=O)C4(C(=O)Nc5ccc(F)cc5)CC4)cc3F)ccnc2cc1OCCCN1CCOCC1 [Foretinib] (partner 0.25 µM)
Outline: as §1

| Cell Line | relative viability (Lestaurtinib + Alpelisib; first compound 0.005 µM) | relative viability (Lestaurtinib + Alpelisib; first compound 0.01581 µM) | relative viability (Lestaurtinib + Alpelisib; first compound 0.05 µM) | relative viability (Lestaurtinib + Alpelisib; first compound 0.1581 µM) | relative viability (Lestaurtinib + Alpelisib; first compound 0.5 µM) | relative viability (Lestaurtinib + OSI-027; first compound 0.005 µM) | relative viability (Lestaurtinib + OSI-027; first compound 0.01581 µM) | relative viability (Lestaurtinib + OSI-027; first compound 0.05 µM) | relative viability (Lestaurtinib + OSI-027; first compound 0.1581 µM) | relative viability (Lestaurtinib + OSI-027; first compound 0.5 µM) | relative viability ([1]; first compound 0.005 µM) | relative viability ([1]; first compound 0.01581 µM) | relative viability ([1]; first compound 0.05 µM) | relative viability ([1]; first compound 0.1581 µM) | relative viability ([1]; first compound 0.5 µM) | relative viability (Lestaurtinib + Foretinib; first compound 0.005 µM) | relative viability (Lestaurtinib + Foretinib; first compound 0.01581 µM) | relative viability (Lestaurtinib + Foretinib; first compound 0.05 µM) | relative viability (Lestaurtinib + Foretinib; first compound 0.1581 µM) | relative viability (Lestaurtinib + Foretinib; first compound 0.5 µM) |
| --- | --- | --- | --- | --- | --- | --- | --- | --- | --- | --- | --- | --- | --- | --- | --- | --- | --- | --- | --- | --- |
| NCI-H647 | 0.972 | 0.87 | 0.267 | 0.231 | 0.14 | 0.6 | 0.562 | 0.28 | 0.205 | 0.143 | 0.93 | 1.12 | 0.624 | 0.225 | 0.141 | 1.41 | 1.15 | 0.705 | 0.478 | 0.16 |
| NCI-H650 | 1.24 | 1.04 | 0.748 | 0.49 | 0.429 | 0.536 | 0.6 | 0.441 | 0.364 | 0.313 | 0.744 | 0.764 | 0.509 | 0.414 | 0.226 | 1.04 | 1.17 | 0.839 | 0.689 | 0.584 |
| NCI-H661 | 0.618 | 0.953 | 0.495 | 0.477 | 0.406 | 0.623 | 0.736 | 0.405 | 0.589 | 0.372 | 1.01 | 0.84 | 0.97 | 0.927 | 0.676 | 1.02 | 0.935 | 1.02 | 0.933 | 0.421 |
| NCI-H727 | 0.627 | 0.481 | 0.554 | 0.49 | 0.155 | 0.614 | 0.675 | 0.525 | 0.698 | 0.498 | 1.26 | 0.911 | 0.718 | 0.613 | 0.323 | 1.05 | 0.991 | 1.05 | 0.756 | 0.33 |
| NCI-H838 | 1.06 | 1.05 | 0.9 | 0.576 | 0.183 | 0.399 | 0.441 | 0.397 | 0.446 | 0.228 | 0.78 | 0.803 | 0.71 | 0.465 | 0.158 | 1.12 | 1.04 | 0.869 | 0.519 | 0.26 |
| NCI-H1355 | 0.849 | 0.885 | 0.682 | 0.392 | 0.303 | 0.387 | 0.438 | 0.362 | 0.309 | 0.286 | 1.29 | 1.09 | 1.01 | 0.86 | 0.549 | 1.03 | 1.08 | 0.696 | 0.802 | 0.356 |
| NCI-H1437 | 0.958 | 1.11 | 1.01 | 0.757 | 0.461 | 0.885 | 0.949 | 0.952 | 0.747 | 0.698 | 0.863 | 0.897 | 0.906 | 0.887 | 0.674 | 1.35 | 1.4 | 1.29 | 1.17 | 1.07 |
| NCI-H1563 | 0.88 | 0.954 | 0.944 | 0.865 | 0.813 | 0.724 | 0.755 | 0.757 | 0.777 | 0.734 | 0.913 | 0.921 | 0.837 | 0.907 | 0.794 | 0.977 | 0.96 | 0.978 | 0.97 | 0.991 |
